Results reported in US20250057963A1, “DISCOVERY OF PIPERLONGUMINE AS A NOVEL E3 LIGASE LIGAND” (University of Florida Research Foundation, Incorporated, priority 2021, published 2025).

Legend:
CDK9 [1] = target: T1, CDK9 (Homo sapiens, UniProt P50750); experiment: CDK9 degradation in 293T and K562 cells (immunoblot); assay type: cell-based; parameters: endogenous in cells; host or cells: MOLT4, 293T, K562, NCI-H1299, LNCaP
Procedure: Human T-ALL MOLT4 (Cat. No. CRL-1582), K562 (Cat. No. CCL-243), NCI-H1299 (Cat. No. CRL-5803), NCI-H2228 (Cat. No. CRL-5935), LNCaP (Cat. No. CRL-1740), 22RV1 (Cat. No. CRL-2505), PC3 (Cat. No. CRL-1435), DU145 (Cat. No. HTB-81), and epithelial kidney HEK 293T (293T, Cat. No. ACS-4500) cell lines were recently purchased from American Type Culture Collection (ATCC, Manassas, VA, USA). MOLT4, K562, NCI—H-1299, NCI-H2228, LNCap, and 22RV 1 cell lines were cultured in RPMI 1640 medium (Cat No. 22400-089, Thermo Fisher Scientific, Waltham, MA, USA) supplemented with 10% (v/v) heat-inactivated fetal bovine serum (FBS, Cat. No. S11150H, Atlanta Biologicals, Flowery Branch, GA, USA), 100 U/mL penicillin and 100 pig/mL streptomycin (Pen-Strep, Cat. No. 15140122, Thermo Fisher Scientific). PC3 cells were cultured in complete F—12K medium (Kaighn's modification of Ham's F-12 medium, Cat. No. 30-2004, ATCC) supplemented with 10% (v/v) heat-inactivated FBS, 100 U/mL penicillin, and 100 μg/mL streptomycin. DU145 cells were cultured in complete Eagle's Minimum Essential Medium (EMEM, Cat. No. 30-2003, ATCC) supplemented with 10% (v/v) heat-inactivated FBS, 100 U/mL penicillin, and 100 μg/mL streptomycin. 293T cells were cultured in complete Dulbecco's modified Eagle medium (DMEM, Cat. No. 12430054, Thermo Fisher Scientific) with 10% (v/v) heat-inactivated FBS, 100 U/mL penicillin, and 100 μg/mL streptomycin. All the cell lines were maintained in a humidified incubator at 37° C. and 5% CO2.
Cells were collected and lysed in RIPA lysis buffer (Cat. #BP-115DG, Boston Bio Products, Ashland, MA, USA) supplemented with protease and phosphatase inhibitor cocktails (Cat. #PPC1010, Sigma-Aldrich, St. Louis, MO, USA). Protein samples were made and immunoblotting was performed as described previously (Khan et al., 2019; Lv et al., 2021). […]
Immunoblot data were quantified using the ImageJ (v 1.53a) software from NIH. […]

CDK9 [2] = target: T1, CDK9; experiment: 955-induced CDK9 degradation in H1299 cells after KEAP1, TRIP12 or TRAF6 knockdown/knockout and KEAP1 rescue; assay type: cell-based; parameters: endogenous in cells; host or cells: MOLT4, 293T, K562, NCI-H1299, LNCaP
Procedure: Cells were collected and lysed in RIPA lysis buffer (Cat. #BP-115DG, Boston Bio Products, Ashland, MA, USA) supplemented with protease and phosphatase inhibitor cocktails (Cat. #PPC1010, Sigma-Aldrich, St. Louis, MO, USA). Protein samples were made and immunoblotting was performed as described previously (Khan et al., 2019; Lv et al., 2021). Antibodies purchased from Cell Signaling Technologies (CST) and the dilutions are as follows: Biotin (Cat. No. 5571S, 1:1000), PARP (Cat. No. 9542S, 1:1000), c-Myc (Cat. No. 5605S, 1:1000), MCL1 (Cat. No. 5453S, 1:1000), and ALK (Cat. No. 3791S, 1:1000). KEAP1 antibody was purchased from Proteintech (Cat. No. 10503-2-AP, 1:1000). CDK9 antibody was purchased from Santa Cruz (Cat. No. sc-13130, 1:500). V5-tag antibody was purchased from Bethyl (Cat. No. A190-120P, 1:1000). j-actin antibody was purchased from MP Biomedicals (Cat. No. 8691001, 1:20 000).
To knockout KEAP1, two lentiviral CRISPR knockout plasmids targeting human KEAP1 gene were purchased from Abm (Cat. No. 254911110595). Packaging 293T cells were transfected with KEAP1 single guide RNA (sgRNA) and helper vectors (pMD2.G and psPAX2; Addgene plasmid #12259 and 12260) using Lipofectamine 3000 reagent (Cat. No. L3000015, Thermal Fisher). Medium containing lentiviral particles and 8 µg/mL polybrene (Sigma-Aldrich) was used to infect H1299 cells. Infected cells were selected in medium containing […] puromycin. The sgRNA target sequences are as follows: sg1: […]; sg2: […]. Single clones were selected by serial dilution.
KEAP1-sg1 knockout H1299 (4×10^5) cells were transfected with or without plasmid expressing Halo-KEAP1 (Addgene, a gift from Yimon Aye, plasmid #58240) using Lipofectamine 3000 reagent (Cat. No. L3000015, Thermal Fisher). After 24 h, the cells in each well of 6-well plate were divided into two wells and cultured for additional 16 h.

T1 sequence (P50750 whole entry): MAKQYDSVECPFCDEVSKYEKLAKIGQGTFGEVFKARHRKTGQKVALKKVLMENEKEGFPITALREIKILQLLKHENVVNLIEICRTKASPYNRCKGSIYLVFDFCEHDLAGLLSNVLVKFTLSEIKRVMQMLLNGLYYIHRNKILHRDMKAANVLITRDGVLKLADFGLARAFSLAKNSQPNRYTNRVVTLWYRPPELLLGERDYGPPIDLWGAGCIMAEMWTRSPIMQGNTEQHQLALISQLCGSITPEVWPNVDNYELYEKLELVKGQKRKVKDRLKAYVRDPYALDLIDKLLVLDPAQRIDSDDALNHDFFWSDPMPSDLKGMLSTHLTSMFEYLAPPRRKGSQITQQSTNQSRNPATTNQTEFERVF

dependence of 955-induced CDK9 degradation on the UPS (CDK9 [1]; 293T and K562 cells, MG132, bortezomib, MLN4924 pre-treatment): UPS dependent manner | CDK9 degradation in 293T cells (CDK9 [1]; 293T cells, 0.1 μM or 1 μM 955): time and dose dependent manner | CDK9 degradation in K562 cells (CDK9 [1]; K562 cells, 0.1 μM 955): time and dose dependent manner | 955-induced CDK9 degradation after KEAP1 knock down/out (siRNA, CRISPR-Cas9) (CDK9 [2]; H1299 cells): blocked after depleting KEAP1 | 955-induced CDK9 degradation after TRIP12 or TRAF6 siRNA knockdown (CDK9 [2]; H1299 cells, 6 h): had no effect | 955-induced CDK9 degradation after ectopic Halo-tagged KEAP1 in KEAP1 stable knockout cells (CDK9 [2]; KEAP1-sg1 knockout H1299 cells, 955 for 6 h): rescued CDK9 degradation
Compound: COc1cc(/C=C/C(=O)N2CCC=CC2=O)cc(OC)c1OCCN1CCN(C(=O)CN2CCC(C(=O)Nc3ncc(SCc4ncc(C(C)(C)C)o4)s3)CC2)CC1 [compound 955, (E)-N-(5-(((5-(tert-butyl)oxazol-2-yl)methyl)thio)thiazol-2-yl)-1-(2-(4-(2-(2,6-dimethoxy-4-(3-oxo-3-(6-oxo-3,6-dihydropyridin-1(2H)-yl)prop-1-en-1-yl)phenoxy)ethyl)piperazin-1-yl)-2-oxoethyl)piperidine-4-carboxamide]
